Series [1] has as its target T1, Dual specificity protein kinase TTK (Homo sapiens, UniProt P33981).
T1 sequence (P33981 whole entry): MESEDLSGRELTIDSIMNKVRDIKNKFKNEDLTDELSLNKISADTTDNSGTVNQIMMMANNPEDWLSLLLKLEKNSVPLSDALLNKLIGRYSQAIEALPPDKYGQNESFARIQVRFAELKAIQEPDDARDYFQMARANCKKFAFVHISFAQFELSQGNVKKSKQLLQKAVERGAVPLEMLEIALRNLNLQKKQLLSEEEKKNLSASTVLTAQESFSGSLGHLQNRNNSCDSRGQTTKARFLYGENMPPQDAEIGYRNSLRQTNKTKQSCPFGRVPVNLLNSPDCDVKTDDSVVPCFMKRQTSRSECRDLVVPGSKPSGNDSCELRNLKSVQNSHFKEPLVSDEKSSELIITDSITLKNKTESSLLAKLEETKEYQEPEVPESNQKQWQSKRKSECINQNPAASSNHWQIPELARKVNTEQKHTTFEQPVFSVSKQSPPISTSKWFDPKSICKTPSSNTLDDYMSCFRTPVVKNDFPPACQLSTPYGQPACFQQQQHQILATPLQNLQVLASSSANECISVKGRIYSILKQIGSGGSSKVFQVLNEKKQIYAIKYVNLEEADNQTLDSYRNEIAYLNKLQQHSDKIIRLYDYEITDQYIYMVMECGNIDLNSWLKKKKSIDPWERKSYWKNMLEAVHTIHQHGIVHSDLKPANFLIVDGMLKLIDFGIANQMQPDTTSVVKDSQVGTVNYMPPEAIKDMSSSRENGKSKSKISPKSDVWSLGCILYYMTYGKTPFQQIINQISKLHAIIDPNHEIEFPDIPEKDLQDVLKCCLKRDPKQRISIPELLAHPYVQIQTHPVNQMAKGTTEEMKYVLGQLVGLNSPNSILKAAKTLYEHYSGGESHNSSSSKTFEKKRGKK
Description: Inhibition of glioblastoma patient derived MPS1.

The nature of the next series: in vivo. Conditions: mouse, ip, 150 mg/kg.
The test system of series [2] is HCT-116. The series is described as follows: animal or person. Conditions: Mus musculus, HCT-116, ip, read-out: TGI.
For series [3], the system named is HCT-116. Description: animal or person. Conditions: Mus musculus, HCT-116, ip, 96 h, read-out: TGI.
A further series has as its system COLO 205. The series is described as follows: animal or person. Conditions: Mus musculus, COLO 205, ip, 96 h, read-out: TGI.
Series [4] deals with T1, Dual specificity protein kinase TTK. The series is described as follows: Inhibition of MPS1 (unknown origin).
Series [5] in a line: Half life in mouse at 5 mg/kg, ip. Format: ADME, organism-based. Conditions: in vivo.
Series [6] can be described thus: Cmax in mouse at 5 mg/kg, ip. Type of series: ADME, organism-based. More on the design: dose 5 mg/kg, route intraperitoneal. Conditions: in vivo.
The nature of series [7]: Half life in mouse at 5 mg/kg, iv. Type of series: ADME, organism-based. Conditions: in vivo.
The nature of series [8]: Cmax in mouse at 5 mg/kg, iv. Format: ADME, organism-based. More on the design: dose 5 mg/kg, route intravenous. Conditions: in vivo.
A short description of series [9]: Half life in mouse at 5 mg/kg, po. Format: ADME, organism-based. Conditions: in vivo.
The nature of series [10]: Cmax in mouse at 5 mg/kg, po. Type of series: ADME, organism-based. The arrangement: dose 5 mg/kg, route oral. Conditions: in vivo.
Series [11] in a line: Oral bioavailability in mouse at 5 mg/kg. Type of series: ADME, organism-based. Conditions: in vivo.
Series [12] in a line: Bioavailability in mouse at 5 mg/kg, ip. Format: ADME, organism-based. Conditions: in vivo.
In series [13] the target is T1, Dual specificity protein kinase TTK. The series is described as follows: Inhibition of MPS1 (510 to 857 residues) catalytic domain (unknown origin) expressed in Escherichia coli after 15 mins by mass-spectrometry analysis.
The subject of another series is MDA-MB-231. Description: Antiproliferative activity against human MDA-MB-231 cells after 7 days by cell titer-glo assay. Type of series: functional, cell-based. Conditions: MDA-MB-231, 168 h. For orientation: Cellular ATP, detected with luciferase, serves as a proxy for viable cell number.
The target in series [14] is Focal adhesion kinase 1 (Homo sapiens) (UniProt Q05397). The series is described as follows: Inhibition of FAK (unknown origin) relative to control. Conditions: concentration not given here.
Series [15] concerns the target Mitogen-activated protein kinase 8 (Homo sapiens) (UniProt P45983). The series is described as follows: Inhibition of JNK1 (unknown origin) relative to control. Conditions: concentration not given here.
In series [16] the target is Mast/stem cell growth factor receptor Kit (Homo sapiens) (UniProt P10721). Description: Inhibition of KIT (unknown origin) relative to control. Conditions: concentration not given here.
Series [17] addresses Mitogen-activated protein kinase 9 (Homo sapiens) (UniProt P45984). The series is described as follows: Inhibition of JNK2 (unknown origin) relative to control. Conditions: concentration not given here.
The next series has as its system Mus musculus. Description: In vivo inhibition of MPS1 in mouse xenografted with human HCT116 cells at 100 mg/kg, po after 24 hrs by LC-MS analysis relative to control. Format: functional. Conditions: HCT-116, po.
The test system of a further series is A549. The series is described as follows: animal or person. Conditions: Mus musculus, A549, po, read-out: TGI.
Series [18] in a line: Half life in mouse xenografted with human A2780 cells at 90 mg/kg, po daily administered for 7 consecutive days. Conditions: in vivo. Format: ADME, organism-based.
Series [19] can be described thus: Oral bioavailability in mouse xenografted with human A2780 cells at 90 mg/kg daily administered for 7 consecutive days. Type of series: ADME, organism-based. Conditions: in vivo. In general terms: In xenograft studies the graft and the host belong to different species.
The test system of the next series is A2780. Description: Antitumor activity against human A2780 cells xenografted in mouse assessed as tumor growth inhibition at 90 mg/kg, po daily administered for 7 consecutive days relative to control. Type of series: functional. Conditions: read-out: TGI.

Mitogen-activated protein kinase 8 (Homo sapiens), sequence (P45983 whole entry): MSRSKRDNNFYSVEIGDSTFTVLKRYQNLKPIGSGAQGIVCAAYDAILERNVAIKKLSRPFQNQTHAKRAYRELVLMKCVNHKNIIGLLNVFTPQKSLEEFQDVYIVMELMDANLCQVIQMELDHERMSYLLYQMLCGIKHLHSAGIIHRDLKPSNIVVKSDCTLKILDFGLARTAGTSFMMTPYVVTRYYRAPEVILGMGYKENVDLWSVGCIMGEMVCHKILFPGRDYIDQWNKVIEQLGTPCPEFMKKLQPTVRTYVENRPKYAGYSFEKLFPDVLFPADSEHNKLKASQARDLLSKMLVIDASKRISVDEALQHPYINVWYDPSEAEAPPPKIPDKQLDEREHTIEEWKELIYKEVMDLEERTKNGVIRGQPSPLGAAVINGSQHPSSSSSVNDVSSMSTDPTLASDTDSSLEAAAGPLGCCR
Mast/stem cell growth factor receptor Kit (Homo sapiens), sequence (P10721 whole entry): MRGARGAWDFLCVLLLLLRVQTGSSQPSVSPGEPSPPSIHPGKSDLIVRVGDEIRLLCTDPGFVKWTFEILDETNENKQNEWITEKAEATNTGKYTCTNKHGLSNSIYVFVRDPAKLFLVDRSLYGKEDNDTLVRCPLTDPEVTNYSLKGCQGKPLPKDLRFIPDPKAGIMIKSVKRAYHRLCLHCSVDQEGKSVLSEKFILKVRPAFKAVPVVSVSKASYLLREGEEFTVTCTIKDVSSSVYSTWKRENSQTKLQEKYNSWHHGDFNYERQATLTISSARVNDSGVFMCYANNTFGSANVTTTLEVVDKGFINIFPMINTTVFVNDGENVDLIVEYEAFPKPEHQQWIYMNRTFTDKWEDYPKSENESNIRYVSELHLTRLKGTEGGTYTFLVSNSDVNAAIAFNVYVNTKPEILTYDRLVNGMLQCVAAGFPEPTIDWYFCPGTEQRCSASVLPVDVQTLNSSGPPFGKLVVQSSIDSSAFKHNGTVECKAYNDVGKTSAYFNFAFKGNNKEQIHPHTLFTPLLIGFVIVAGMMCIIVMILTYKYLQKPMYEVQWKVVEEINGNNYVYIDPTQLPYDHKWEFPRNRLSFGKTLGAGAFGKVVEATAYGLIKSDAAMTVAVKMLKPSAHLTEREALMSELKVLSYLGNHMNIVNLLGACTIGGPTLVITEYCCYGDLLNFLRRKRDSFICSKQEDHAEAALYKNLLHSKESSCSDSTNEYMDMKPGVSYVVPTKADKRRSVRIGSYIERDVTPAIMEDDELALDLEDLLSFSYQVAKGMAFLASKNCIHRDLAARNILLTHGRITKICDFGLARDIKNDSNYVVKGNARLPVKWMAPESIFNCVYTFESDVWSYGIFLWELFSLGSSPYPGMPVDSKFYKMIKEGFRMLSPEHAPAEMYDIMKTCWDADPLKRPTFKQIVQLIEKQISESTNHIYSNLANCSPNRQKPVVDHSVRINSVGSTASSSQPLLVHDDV
Mitogen-activated protein kinase 9 (Homo sapiens), sequence (P45984 whole entry, looked up): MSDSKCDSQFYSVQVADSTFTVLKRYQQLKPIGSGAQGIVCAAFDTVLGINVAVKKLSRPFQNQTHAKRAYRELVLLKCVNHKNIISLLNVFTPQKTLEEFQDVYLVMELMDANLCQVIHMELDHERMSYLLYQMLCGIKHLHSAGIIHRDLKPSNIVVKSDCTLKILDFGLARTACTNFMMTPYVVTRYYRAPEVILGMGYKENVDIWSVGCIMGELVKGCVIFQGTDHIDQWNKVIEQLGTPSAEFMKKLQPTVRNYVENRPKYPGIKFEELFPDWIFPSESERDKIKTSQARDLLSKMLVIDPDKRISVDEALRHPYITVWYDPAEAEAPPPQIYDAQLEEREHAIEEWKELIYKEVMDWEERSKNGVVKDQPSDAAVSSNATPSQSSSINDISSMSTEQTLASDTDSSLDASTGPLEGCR
Focal adhesion kinase 1 (Homo sapiens), sequence (Q05397 2-1052 limits assumed): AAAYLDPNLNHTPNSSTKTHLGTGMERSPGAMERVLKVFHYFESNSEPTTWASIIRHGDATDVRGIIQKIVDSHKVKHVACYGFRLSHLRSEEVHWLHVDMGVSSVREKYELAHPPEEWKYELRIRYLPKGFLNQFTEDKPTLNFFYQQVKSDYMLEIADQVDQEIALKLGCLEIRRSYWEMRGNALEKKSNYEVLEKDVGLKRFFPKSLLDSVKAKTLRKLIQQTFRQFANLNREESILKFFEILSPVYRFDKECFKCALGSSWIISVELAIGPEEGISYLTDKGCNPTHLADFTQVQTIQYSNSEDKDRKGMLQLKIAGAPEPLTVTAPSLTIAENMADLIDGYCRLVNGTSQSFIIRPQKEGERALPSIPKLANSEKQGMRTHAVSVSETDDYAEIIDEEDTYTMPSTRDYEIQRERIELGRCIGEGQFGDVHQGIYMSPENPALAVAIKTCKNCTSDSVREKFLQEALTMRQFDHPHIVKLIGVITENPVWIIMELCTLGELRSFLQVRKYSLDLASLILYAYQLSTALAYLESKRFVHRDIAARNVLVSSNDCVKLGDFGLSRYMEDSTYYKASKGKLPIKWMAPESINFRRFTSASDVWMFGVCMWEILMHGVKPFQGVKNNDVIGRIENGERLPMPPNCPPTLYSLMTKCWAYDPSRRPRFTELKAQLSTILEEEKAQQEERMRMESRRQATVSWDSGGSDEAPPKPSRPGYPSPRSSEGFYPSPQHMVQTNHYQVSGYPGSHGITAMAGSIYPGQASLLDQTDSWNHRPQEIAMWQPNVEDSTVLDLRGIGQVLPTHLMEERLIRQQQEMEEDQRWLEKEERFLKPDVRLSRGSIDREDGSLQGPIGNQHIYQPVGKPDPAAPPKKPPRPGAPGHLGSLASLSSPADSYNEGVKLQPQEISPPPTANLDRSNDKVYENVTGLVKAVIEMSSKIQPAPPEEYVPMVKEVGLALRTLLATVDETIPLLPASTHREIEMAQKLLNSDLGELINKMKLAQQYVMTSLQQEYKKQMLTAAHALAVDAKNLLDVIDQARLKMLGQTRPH

In general, IC50 refers to the point on the concentration scale where inhibition reaches its midpoint. Higher therefore signals lower potency. In [1], `COc1cc(N2CCC(O)CC2)ccc1Nc1nc(Nc2ccccc2S(=O)(=O)C(C)C)c2nc[nH]c2n1` registered an IC50 of 50 nM.

The term AUC denotes the area under the concentration-time curve, a measure of exposure. Read a high AUC as more exposure. In turn, `c1nc2nc(Nc3ccc(N4CCOCC4)cc3)nc(NC3CCCCC3)c2[nH]1` [REVERSINE] gave an AUC at 96 h in “in vivo” of 0.786 ng·h/mL. Besides, the inhibition in vivo at 30 mg/kg in the series on HCT-116 [2] is 49%. Moreover, the inhibition in vivo at 150 mg/kg in the series on HCT-116 [3] was found to be 74%; in the series with COLO 205, 63%.

The compound `CC(C)CNc1nc(-c2cccc3ncccc23)cn2c(-c3ccc(C(=O)NC4CC4)cc3)cnc12` came in with an IC50 in series [4] of 9 nM.

As usually defined, the half-life is the time in which the quantity being followed falls by half. Lower therefore signals fast loss. One may read the Cmax as the highest concentration seen after dosing. One may read the bioavailability as the share of a dose that reaches the circulation, judged against a reference dose that is usually intravenous. Lower therefore signals little systemic uptake. For `CCc1cccc(CC)c1NC(=O)c1ccn2c1CCc1cnc(Nc3ccc(N4CCN(C)CC4)cc3OC)nc1-2`, the figures for the half-life in series [5], in series [7] and in [9] were 204 min, 174 min and 234 min, respectively. Further, the Cmax worked out at 629 nM in series [6], 3.06 µM in series [8] and 188 nM in [10]. Further, the bioavailability in series [11] was 45.2%; in series [12], 90.3%.

In turn, `O=C1c2ccccc2-c2n[nH]c3cccc1c23` yielded an IC50 in [4] of 98 nM.

For orientation: Ki means the dissociation constant of the complex between target and ligand, obtained from inhibition or displacement. Higher therefore signals weaker binding. On to `Cc1nc(N2CCOCC2)ccc1Nc1nc(NC2CCOCC2)c2c(C#N)c[nH]c2n1`, for which, in series [13], the midpoint of inhibition, the IC50, lay at 2.5 nM and the Ki was < 0.5 nM. Further, the IC50 with MDA-MB-231 was 2 to 6 nM.

Broadly, the inhibition is the change of the read-out against control, counted positive when it falls. High values mean a response far below the control, low ones a response near the control. For `COc1cc(OC2CCN(C)CC2)ccc1Nc1ncc2c(n1)n(C1CCCC1)c(=O)n2C`, the inhibition in series [14], in [15], in series [16] and in series [17] was > 40% throughout.

Take `COc1cc(-c2cnn(C)c2)ccc1Nc1ncc2ccnc(N[C@@H](C)C(C)(C)C)c2n1`: the inhibition in vivo at 100 mg/kg in the series with Mus musculus was > 80%.

As for `Cc1nc(N2CCOCC2)ccc1Nc1nc(NC(C)(C)CO)c2c(C#N)c[nH]c2n1`, in [13], the IC50 worked out at 5.5 nM and the Ki was < 0.5 nM.

Take `CC(C)(C)Nc1nc(Nc2ccc(C(N)=O)cc2)cc(N)c1C#N`: in the series with A549, the inhibition in vivo at 100 mg/kg was 47%.

On to `CCc1cccc(CC)c1NC(=O)c1nn(C)c2c1CCc1cnc(Nc3ccc(C(=O)NC4CCN(C)CC4)cc3OC(F)(F)F)nc1-2`, for which the half-life in series [18] is 480 min. Further, in series [19], the bioavailability is 37.9%. Moreover, the inhibition in vivo at 90 mg/kg in the series on A2780 came out at 53%.
